# Measured values published in patent US20210128566A1, “NOVEL FUNCTIONALIZED PURINE-2,6-DIONES AND THEIR USE IN MEDICINE” (THOMAS HELLEDAYS STIFTELSE FÖR MEDICINSK FORSKNING, priority 2017, published 2021).
# pIC50: −log10 of the molar value.
# Molecular target: recombinant human NUDT5 (Homo sapiens, UniProt Q9UKK9)
# Test: NUDT5 inhibitor activity by malachite green reporter assay
# Type: biochemical
# Conditions: Table 3; 6 nM NUDT5, 50 μM ADP-Ribose, 15 minutes at room temperature
# How it was run: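 Coupled ADP-ribose hydrolysis in 10 mM Tris-acetate pH 8.0, 40 mM NaCl, 10 mM Mg acetate, 0.005% Tween-20, 1 mM DTT: 6 nM NUDT5, 50 μM ADP-Ribose, 10 U/ml alkaline phosphatase, 15 min at room temperature. Pi read by malachite green at 630 nm; compounds 100 μM–1.7 nM, 3-fold; IC50 by curve fit.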
row,SMILES,pIC50
1,"C=CCN(CC=C)c1nc2c(c(=O)n(C)c(=O)n2C)n1Cc1nnc(-c2ccc(Cl)c(Cl)c2)o1 [Example 8, 8-[bis(prop-2-en-1-yl)amino]-7-{[5-(3,4-dichlorophenyl)-1,3,4-oxadiazol-2-yl]methyl}-1,3-dimethyl-2,3,6,7-tetrahydro-1H-purine-2,6-dione]",6.79
2,"CCSc1nc2c(c(=O)n(C)c(=O)n2C)n1Cc1nnc(-c2ccc(Cl)c(Cl)c2)o1 [Example 6, 7-{[5-(3,4-dichlorophenyl)-1,3,4-oxadiazol-2-yl]methyl}-8-(ethylsulfanyl)-1,3-dimethyl-2,3,6,7-tetrahydro-1H-purine-2,6-dione]",7.43
3,"Cn1c(=O)c2c(nc(NCCO)n2Cc2nnc(-c3ccc(Cl)c(Cl)c3)o2)n(C)c1=O [Example 2, 7-{[5-(3,4-dichlorophenyl)-1,3,4-oxadiazol-2-yl]methyl}-8-[(2-hydroxyethyl)amino]-1,3-dimethyl-2,3,6,7-tetrahydro-1H-purine-2,6-dione]",7.63

# The remaining lines, values ahead:
row,pIC50,SMILES
1,7.70,"Cn1c(=O)c2c(nc(N3CCC(O)CC3)n2Cc2nnc(-c3ccc(Cl)c(Cl)c3)o2)n(C)c1=O [Example 37, 7-{[5-(3,4-dichlorophenyl)-1,3,4-oxadiazol-2-yl]methyl}-8-(4-hydroxypiperidin-1-yl)-1,3-dimethyl-2,3,6,7-tetrahydro-1H-purine-2,6-dione]"
2,7.52,"Cn1c(=O)c2c(nc(N3CCC(CCO)CC3)n2Cc2nnc(-c3ccc(Cl)c(Cl)c3)o2)n(C)c1=O [Example 20, 7-{[5-(3,4-dichlorophenyl)-1,3,4-oxadiazol-2-yl]methyl}-8-[4-(2-hydroxyethyl)piperidin-1-yl]-1,3-dimethyl-2,3,6,7-tetrahydro-1H-purine-2,6-dione]"
3,< 6.00,"Cc1cccc(-c2nnc(Cn3c(N4CCN(c5ccccc5)CC4)nc4c3c(=O)n(C)c(=O)n4C)o2)c1 [Example 58, 1,3-dimethyl-7-{[5-(3-methylphenyl)-1,3,4-oxadiazol-2-yl]methyl}-8-(4-phenylpiperazin-1-yl)-2,3,6,7-tetrahydro-1H-purine-2,6-dione]"
4,6.79,"Cn1c(=O)c2c(nc(N3CCN(C(=O)OC(C)(C)C)CC3)n2Cc2nnc(-c3ccc(Cl)c(Cl)c3)o2)n(C)c1=O [Example 14, tert-butyl 4-(7-{[5-(3,4-dichlorophenyl)-1,3,4-oxadiazol-2-yl]methyl}-1,3-dimethyl-2,6-dioxo-2,3,6,7-tetrahydro-1H-purin-8-yl)piperazine-1-carboxylate]"
5,< 6.00,"Cn1c(=O)c2c(nc(Cc3ccccc3)n2Cc2nnc(-c3ccc(Cl)c(Cl)c3)o2)n(C)c1=O [Example 63, 8-benzyl-7-{[5-(3,4-dichlorophenyl)-1,3,4-oxadiazol-2-yl]methyl}-1,3-dimethyl-2,3,6,7-tetrahydro-1H-purine-2,6-dione]"
6,7.37,"Cn1c(=O)c2c(nc(N3CC4(COC4)C3)n2Cc2nnc(-c3ccc(Cl)c(Cl)c3)o2)n(C)c1=O [Example 12, 7-{[5-(3,4-dichlorophenyl)-1,3,4-oxadiazol-2-yl]methyl}-1,3-dimethyl-8-{2-oxa-6-azaspiro[3.3]heptan-6-yl}-2,3,6,7-tetrahydro-1H-purine-2,6-dione]"
7,6.36,"CCCCCCN1CCN(c2nc3c(c(=O)n(C)c(=O)n3C)n2Cc2nnc(-c3ccc(Cl)c(Cl)c3)o2)CC1 [Example 15, 7-{[5-(3,4-dichlorophenyl)-1,3,4-oxadiazol-2-yl]methyl}-8-(4-hexylpiperazin-1-yl)-1,3-dimethyl-2,3,6,7-tetrahydro-1H-purine-2,6-dione]"

# Same assay, conditions: Table 4; 6 nM NUDT5, 50 μM ADP-Ribose, 15 minutes at room temperature
row,SMILES,pIC50
1,"COc1ccc(-c2nnc(Cn3c(Cl)nc4c3c(=O)n(C)c(=O)n4C)o2)cc1Cl [Example 99, 8-chloro-7-{[5-(3-chloro-4-methoxyphenyl)-1,3,4-oxadiazol-2-yl]methyl}-1,3-dimethyl-2,3,6,7-tetrahydro-1H-purine-2,6-dione]",7.14
2,"COc1cc(-c2nnc(Cn3c(SCCNC(=O)OC(C)(C)C)nc4c3c(=O)n(C)c(=O)n4C)o2)ccc1C [Example 140, tert-butyl N-{2-[(7-{[5-(3-methoxy-4-methylphenyl)-1,3,4-oxadiazol-2-yl]methyl}-1,3-dimethyl-2,6-dioxo-2,3,6,7-tetrahydro-1H-purin-8-yl)sulfanyl]ethyl}carbamate]",6.58
3,"Cn1c(=O)c2c(nc(N3CCC(CNC(=O)OC(C)(C)C)CC3)n2Cc2nnc(-c3ccc(Cl)c(Cl)c3)o2)n(C)c1=O [Example 65, tert-butyl N-{[1-(7-{[5-(3,4-dichlorophenyl)-1,3,4-oxadiazol-2-yl]methyl}-1,3-dimethyl-2,6-dioxo-2,3,6,7-tetrahydro-1H-purin-8-yl)piperidin-4-yl]methyl}carbamate]",7.47
4,"COc1cc(-c2nnc(Cn3c(SCCN)nc4c3c(=O)n(C)c(=O)n4C)o2)ccc1C [Example 142, 8-[(2-aminoethyl)sulfanyl]-7-{[5-(3-methoxy-4-methylphenyl)-1,3,4-oxadiazol-2-yl]methyl}-1,3-dimethyl-2,3,6,7-tetrahydro-1H-purine-2,6-dione]",7.31
5,"Cn1c(=O)c2c(nc(Cl)n2Cc2nnc(-c3ccc(F)cc3)o2)n(C)c1=O [Example 90, 8-chloro-7-{[5-(4-fluorophenyl)-1,3,4-oxadiazol-2-yl]methyl}-1,3-dimethyl-2,3,6,7-tetrahydro-1H-purine-2,6-dione]",5.36
6,"COc1ccc(-c2nnc(Cn3c(Cl)nc4c3c(=O)n(C)c(=O)n4C)o2)cc1 [Example 73, 8-chloro-7-{[5-(4-methoxyphenyl)-1,3,4-oxadiazol-2-yl]methyl}-1,3-dimethyl-2,3,6,7-tetrahydro-1H-purine-2,6-dione]",5.90
7,"Cc1ccc(-c2nnc(Cn3c(Cl)nc4c3c(=O)n(C)c(=O)n4C)o2)cn1 [Example 106, 8-chloro-1,3-dimethyl-7-{[5-(6-methylpyridin-3-yl)-1,3,4-oxadiazol-2-yl]methyl}-2,3,6,7-tetrahydro-1H-purine-2,6-dione]",5.53
8,"Cn1c(=O)c2c(nc(Cl)n2Cc2nnc(-c3ccc([N+](=O)[O-])cc3)o2)n(C)c1=O [Example 96, 8-chloro-1,3-dimethyl-7-{[5-(4-nitrophenyl)-1,3,4-oxadiazol-2-yl]methyl}-2,3,6,7-tetrahydro-1H-purine-2,6-dione]",5.82
9,"CN(C)CCN(C)c1nc2c(c(=O)n(C)c(=O)n2C)n1Cc1nnc(-c2ccc(Cl)c(Cl)c2)o1 [Example 135, 7-{[5-(3,4-dichlorophenyl)-1,3,4-oxadiazol-2-yl]methyl}-8-{[2-(dimethylamino)ethyl](methyl)amino}-1,3-dimethyl-2,3,6,7-tetrahydro-1H-purine-2,6-dione]",7.02

# Now from value to molecule:
row,pIC50,SMILES
1,4.61,"Cn1c(=O)c2c(nc(N3CCN(C(=O)OC(C)(C)C)CC3)n2Cc2nnc(-c3ccc(N)cc3)o2)n(C)c1=O [Example 105, tert-butyl 4-(7-{[5-(4-aminophenyl)-1,3,4-oxadiazol-2-yl]methyl}-1,3-dimethyl-2,6-dioxo-2,3,6,7-tetrahydro-1H-purin-8-yl)piperazine-1-carboxylate]"
2,7.48,"COc1cc(-c2nnc(Cn3c(N4CCC(C(N)=O)CC4)nc4c3c(=O)n(C)c(=O)n4C)o2)ccc1C [Example 138, 1-(7-{[5-(3-methoxy-4-methylphenyl)-1,3,4-oxadiazol-2-yl]methyl}-1,3-dimethyl-2,6-dioxo-2,3,6,7-tetrahydro-1H-purin-8-yl)piperidine-4-carboxamide]"
3,6.46,"Cn1c(=O)c2c(nc(N3CCNCC3)n2Cc2nnc(-c3ccc(F)cc3)o2)n(C)c1=O [Example 109, 7-{[5-(4-fluorophenyl)-1,3,4-oxadiazol-2-yl]methyl}-1,3-dimethyl-8-(piperazin-1-yl)-2,3,6,7-tetrahydro-1H-purine-2,6-dione]"
4,6.83,"CCOC(=O)c1cn2c(n1)CN(c1nc3c(c(=O)n(C)c(=O)n3C)n1Cc1nnc(-c3ccc(Cl)c(Cl)c3)o1)CC2 [Example 81, ethyl 7-(7-{[5-(3,4-dichlorophenyl)-1,3,4-oxadiazol-2-yl]methyl}-1,3-dimethyl-2,6-dioxo-2,3,6,7-tetrahydro-1H-purin-8-yl)-5H,6H,7H,8H-imidazo[1,2-a]pyrazine-2-carboxylate]"
5,6.04,"COc1cc(-c2nnc(Cn3c(N4CCNC(C(F)(F)F)C4)nc4c3c(=O)n(C)c(=O)n4C)o2)ccc1C (stereo not shown) [Example 129, 7-{[5-(3-methoxy-4-methylphenyl)-1,3,4-oxadiazol-2-yl]methyl}-1,3-dimethyl-8-[3-(trifluoromethyl)piperazin-1-yl]-2,3,6,7-tetrahydro-1H-purine-2,6-dione]"
6,6.77,"COc1ccc(-c2nnc(Cn3c(N4CCNCC4)nc4c3c(=O)n(C)c(=O)n4C)o2)cc1OC [Example 123, 7-{[5-(3,4-dimethoxyphenyl)-1,3,4-oxadiazol-2-yl]methyl}-1,3-dimethyl-8-(piperazin-1-yl)-2,3,6,7-tetrahydro-1H-purine-2,6-dione]"
7,6.70,"COc1ccc(-c2nnc(Cn3c(N4CCNCC4)nc4c3c(=O)n(C)c(=O)n4C)o2)cc1 [Example 74, 7-{[5-(4-methoxyphenyl)-1,3,4-oxadiazol-2-yl]methyl}-1,3-dimethyl-8-(piperazin-1-yl)-2,3,6,7-tetrahydro-1H-purine-2,6-dione]"
8,6.58,"COc1cc(-c2nnc(Cn3c(N4CC[C@@H](N(C)C)C4)nc4c3c(=O)n(C)c(=O)n4C)o2)ccc1C [Example 139, 8-[(3R)-3-(dimethylamino)pyrrolidin-1-yl]-7-{[5-(3-methoxy-4-methylphenyl)-1,3,4-oxadiazol-2-yl]methyl}-1,3-dimethyl-2,3,6,7-tetrahydro-1H-purine-2,6-dione]"
9,6.69,"COc1cc(-c2nnc(Cn3c(N4CCC(CO)CC4)nc4c3c(=O)n(C)c(=O)n4C)o2)ccc1C [Example 130, 8-[4-(hydroxymethyl)piperidin-1-yl]-7-{[5-(3-methoxy-4-methylphenyl)-1,3,4-oxadiazol-2-yl]methyl}-1,3-dimethyl-2,3,6,7-tetrahydro-1H-purine-2,6-dione]"
